Assay results as given in patent US20110034472A1, “Novel Compounds for Treatment of Cancer and Disorders Associated With Angiogenesis Function” (UNIVERSITY OF SOUTHERN CALIFORNIA, priority 2004, published 2011).

How the values were obtained:
[1] = system: SF-295 CNS cancer cells; experiment: Sensitivity of various cancer cells to SC144, SF-295; assay type: cell-based; conditions: Homo sapiens
Text: (§1) The studies were expanded to other cell lines. […] Subnanomolar to low nanomolar potency was also observed in HCT-116 and HT29 colon cancer cell lines (Table 2).

[2] = system: MDA-MB-435 cells; experiment: Annexin V/PI apoptosis analysis, SC144 and CPT; assay type: cell-based, human; conditions: 48 h; IC80
Text: Cells were stained with annexin V/PI and analyzed by flow cytometry. Cells in the bottom left quadrant of each panel (Annexin V-negative, PI-negative) are viable, whereas cells in the bottom right quadrant (Annexin V-positive, PI-negative) are in the early stages of apoptosis, and cells in the top right quadrant (Annexin V-positive, PI-positive) are in later stages of apoptosis and necrosis.
An early event in apoptotic cell death is the translocation of the phosphatidyl-serine residues to the outer part of the cell membrane. This event precedes nuclear breakdown, DNA fragmentation, the appearance of most apoptosis-associated molecules, and is readily measured by annexin V binding assay. By this method, SC144 was compared with CPT.

[3] = system: UACC-62 melanoma cells; experiment: Sensitivity of various cancer cells to SC144, UACC-62; assay type: cell-based; conditions: Homo sapiens
Text: as §1

[4] = system: HCT 116 p53^−/− colon cancer cells; experiment: MTT cytotoxicity assay, HCT 116 p53-/-; assay type: cell-based, human; conditions: Homo sapiens, 72 h
Text: Human breast cancer cells MDA-MB-435 and colon cancer HT29, p53 mutant were purchased from the American Type Cell Culture (Manassas, Va.). The HCT116 P53^+/+ and HCT116 P53^−/− cells were kindly provided by Dr. Bert Vogelstein (Johns Hopkins Medical Institutions, Baltimore, Md.). Human prostate cancer cells, LNCaP, were kindly provided by Richard Cote (University of Southern California Keck School of Medicine). Cells were maintained as monolayer cultures in RPMI 1640 media supplemented with 10% fetal bovine serum (Gemini-Bioproducts, Woodland, Calif.) and 2 mmol/L L-glutamine at 37° C. in a humidified atmosphere of 5% CO2. To remove the adherent cells from the flask for passaging and counting, cells were washed with PBS without calcium or magnesium, incubated with a small volume of 0.25% trypsin-EDTA solution (Sigma-Aldrich, St. Louis, Mo.) for 5-10 min, and washed with culture medium and centrifuged. All experiments were performed using cells at exponential growth stage. Cells were routinely checked for mycoplasma contamination using a PCR-based assay (Stratagene, Cambridge, UK).
Cytotoxicity was assessed by a 3-(4,5-dimethylthiazol-2-yl)-2,5-diphenyltetrazolium bromide (MTT) assay as previously described.^9 Briefly, cells were seeded in 96-well microtiter plates and allowed to attach. Cells were subsequently treated with continuous exposure to the corresponding drug for 72 h. An MTT solution (at a final concentration of 0.5 mg/mL) was added to each well, and cells were incubated for 4 h at 37° C. After removal of the medium, DMSO was added and the absorbance was read at 570 nm. All assays were done in triplicate. The IC50 was then determined for each drug from a plot of log (drug concentration) versus percentage of cells killed.

[5] = system: HOP-92 non-small cell lung cancer cells; experiment: Sensitivity of various cancer cells to SC144, HOP-92; assay type: cell-based; conditions: Homo sapiens
Text: as §1

[6] = system: HEY cells; experiment: Cell cycle analysis (propidium iodide), SC21, HEY; assay type: cell-based, human; conditions: 72 hours
Procedure: FIG. 17 depicts flow cytometric analysis of the cell cycle profiles of DU145, PC3, MDA-MB-435, and HEY cells treated with SC21. […] SC21 induced a G0/G1 phase arrest in DU145 and MDA-MB-435 cells and S phase arrest in PC3 and HEY cells.
Cell cycle perturbations induced by SC21 and camptothecin (CPT) were analyzed by propidium iodide DNA staining. Briefly, exponentially growing PC3 and DU145 cells were treated with different doses of the drug for 24, 48, and 72 hours. At the end of each treatment time, cells were collected and washed with PBS after a gentle centrifugation at 200×g for 5 minutes. Cells were thoroughly resuspended in 0.5 mL of PBS and fixed in 70% ethanol for at least 2 hours at 4° C. Ethanol-suspended cells were then centrifuged at 200×g for 5 minutes and washed twice in PBS to remove residual ethanol. For cell cycle analysis, the pellets were suspended in 1 mL of PBS containing 0.02 mg/mL of propidiumiodide, 0.5 mg/mL of DNase-free RNase A and 0.1% of Triton X-100 and incubated at 37° C. for 30 minutes. Cell cycle profiles were obtained using a FACScan flowcytometer (Becton Dickinson, San Jose, Calif.) and data were analyzed by ModFit LT software (Verity Software House, Inc., Topsham, Me.).
It was noteworthy that SC21 induced S phase arrest in PC3 and HEY cell lines (FIG. 17).

[7] = system: DU145 cells; experiment: Annexin V/propidium iodide apoptosis assay, DU145; assay type: cell-based, human; conditions: 72 hours exposure, IC80
Procedure: FIG. 19 illustrates apoptosis analysis of DU145 cells treated with SC21 or CPT (IC80). Cells were treated with SC21 or CPT for 24, 48, and 72 h, harvested, stained with annexin V/propidium iodide and analyzed by flow cytometry. Untreated control cells (24 and 48 h) were also included in the analysis. Annexin VFITC signals are recorded in FL1-H or […] and propidium iodide in FL2-H or […]. Cells in the bottom left quadrant (annexin V-negative, propidium iodide-negative) are viable, whereas cells in the right quadrant (annexin V-positive, propidium iodide-negative) are in the early stages of apoptosis, and the cells in the top right quadrant (annexin V-positive, propidium iodide-positive) are in later stages of apoptosis and necrosis.
To quantify drug-induced apoptosis, annexin V/propidium iodide staining was done followed by flow cytometry. […] The resulting fluorescence (FLH-1 channel for green fluorescence and FLH-2 channel for red fluorescence) was measured by flow cytometry using a FACScan flow cytometer (Becton Dickinson).
SC21 and CPT-induced apoptosis was measured by flow cytometry (FIG. 18). SC21 at an IC80 dose for 72 hours induced 12% to 15% apoptosis as measured by calculating sub-G0/G1 population. […] This event precedes nuclear breakdown, DNA fragmentation, the appearance of most apoptosis-associated molecules, and is readily measured by annexin V binding assay. […]

Compound `O=C(NNc1nc2cc(F)ccc2n2cccc12)c1cnccn1` [SC144, Pyrazine-2-carboxylic acid N′-(7-fluoro-pyrrolo[1,2-a]quinoxalin-4-yl)-hydrazide] has a CC50 [1] of 420 nM, an early-apoptotic cells [2] of 37% and a late-apoptosis/necrosis [2] of 16%. It also gave a CC50 [3] of 800 nM, an IC50 [4] of 900 ± 40 nM and a CC50 [5] of 200 nM.

`O=C(NNC(=O)c1ccccc1O)C1=CC2C=CC=CC2C=C1O` (centres unmarked) [SC21] was tested, and the “accumulation in S phase” value [6] was 69% and the “early plus late apoptotic cells” value [7] was 72%.
